# Literature values, collected in US20040185009A1, “Composition and device for treating periodontal diseases” (DEXCEL PHARMA TECHNOLOGIES LTD., priority 2003, published 2004).
# Experiments:
# [1] = tested on: periodontal disease; settings: 24 months, FBP-treated patient group
# [2] = tested on: periodontal disease; settings: 100 mg/day for two months
smiles,measurement,setting,value
"CC(C(=O)O)c1ccc(-c2ccccc2)c(F)c1 (centres unmarked) [FBP, Flurbiprofen]",Effect on bone loss,[1],reduction in bone loss
same,"Effect on bone metabolism (standardized radiography, radiopharmaceutical uptake)",[2],increased bone metabolism
